Entries after “also recorded” stand apart in the source; their conditions may differ.
Columns and labels:
primary microglia = experiment: Phagocytosis of FITC-dextran by primary microglia (FACS); type: cell-based, mouse; settings: 100, 300, and 500 μM
Experimental: Primary microglia were cultured for 24 hours after being seeded in a 24-well plate (5×10^5 cells/well). Cells were pre-cultured with 2-PF or Sup for 30 minutes, transferred to FITC-dextran (1 mg/ml, 20 mg/ml in PBS; #FD70S; Sigma Aldrich) in serum-free DMEM at 37° C. for […], and washed with PBS at 4° C. Cells were detached by 0.25% trypsin in PBS (#15090-046; Thermo Fisher Scientific) and the detached cells were analyzed by FACS Accuri™ C6 (BD Biosciences). Mean fluorescence intensity (MFI) was calculated by integrating fluorescence histograms under each condition using the aforementioned software. The phagocytosis index was defined as MFI using an untreated group as a standard.

microglia = experiment: GFP intensity / morphology of microglia in CX3CR1 GFP mice; type: in vivo, mouse; settings: cerebral cortex of CX3CR1 GFP mice after injection, vs control
Experimental: In order to analyze morphological changes in microglia activation, 9-week-old CX3CR1^GFP/− mice were used. Two hours after an IP containing or not containing 2-PF was injected into two mice, brain sections were collected by cryosection. After a 40 μm-thick brain tissue fragment was prepared to be smaller than 1 μm, a GFP signal of microglia was measured using a 40-fold magnification confocal microscope. A GFP-pixel signal of microglia was analyzed using Zeiss ZEN Software (Zeiss).

Olfr110 [1] = experiment: Odorant receptor / Olfr110 expression in microglia (qRT-PCR, immunostaining); type: cell-based, mouse; settings: vs control
Excerpt: (§1) For the measurement of mRNA, RNA was isolated from red blood cells, microglia, astrocytes, Hana3A cells, or cerebral cortical cells using the MagNa Lyser (Roche Molecular Diagnostics) using TRIzol reagent (Invitrogen, Carlsbad, CA.) according to the manufacturer's protocol. Then, cDNA was generated through reverse transcription using the isolated mRNA (using PrimeScript™ 1st str and cDNA Synthesis kit—#6110; Takara Bio Inc). This process was quantitatively measured in real time through quantitative real-time-PCR (using LightCycler® 480 SYBR Green I Master). The measured values were calculated using the 2-ΔΔCt method.
Thereafter, the cells were washed with PBS and fixed in 4% paraformaldehyde (#6148; Sigma Aldrich) for 5 minutes. Subsequently, the cells were cultured in PBS containing 4% normal horse serum (#008-000-121; Jackson ImmunoResearch) and 0.1% TWEEN® 20 (#P9416; Sigma-Aldrich) at room temperature for 1 hour. Then, the cells were […] at 4° C. overnight with the primary antibodies listed below. The antibodies are as follows: Olfr110 (rabbit-anti-Olfr110; 1:10,000; #ab177327; Abcam), Iba-1 (goat-anti-Iba-1; 1:1,000; #ab5076; Abcam), and GFAP (mouse-anti-GFAP; 1:1,000; #556330; BD Biosciences). Samples were cultured with secondary antibodies in PBS including 0.1% TWEEN® 20 (#P9416; Sigma-Aldrich) at room temperature for 1 hour. […]

[2] = tested on: Hana3A cells expressing Olfr110; experiment: Boyden chamber chemotaxis, Hana3A cells expressing Olfr110; type: cell-based; settings: 2-PF 10, 100, 1000 uM
Experimental: (§2) Cell chemotaxis was measured using a multiwell Boyden chamber. More specifically, a polycarbonate filter (8 μm pore; #101-8; Neuroprobe) was coated with […] fibronectin in PBS (Sigma-Aldrich) for 2 hours, and the coated filter was placed in a Boyden chamber. In addition, the bottom side of the plate was filled with serum-free DMEM containing 2-pentylfuran or a culture supernatant. Next, microglia or Hana3A cells were transfected with an odorant receptor structure and then suspended in serum-free DMEM. Subsequently, microglia and Hana3A cells were allowed to stand at 37° C. for 4 hours and 8 hours, respectively. Cells sinking to the bottom were fixed with 4% PFA, and stained with hematoxylin for 10 minutes. Fixed cells were counted under an optical microscope in 5 randomly selected fixed […] fields (200×) using a scored eyepiece. The chemical chemotaxis index was defined as the number of migrating cells using an untreated group as a standard.

[3] = tested on: Hana3A cells expressing Olfr111; experiment: Boyden chamber chemotaxis, Hana3A cells expressing Olfr111; type: cell-based; settings: 2-PF 10, 100, 1000 uM
Experimental: as §2

Olfr111 = experiment: Luciferase assay in Hana3A cells, Olfr111; type: cell-based, mouse; settings: Hana3A cells
Experimental: (§3) Next, Hana3A cells were transfected with RTP1S, and their location and presence on the cell membrane were confirmed as previously described (Behrens et al., 2009; Zhuang and Matsunami, 2008). Such transfection was performed using Lipofectamine 2000 (#11668-019; Thermo Fisher Scientific) according to the manufacturer's instructions. More specifically, the transfected cells were grown on a coverslip (#0101050; Marienfeld) coated with poly D lysine (10 μg/ml; #P7280; Sigma Aldrich). Next, the cells were washed with a warm PBS solution and cooled with ice for 30 minutes to block endocytosis. […] The cells were then incubated with normal horse serum (#008-000-121; Jackson ImmunoResearch) at room temperature for 1 hour. […] After being washed with PBS, the cells were treated with a Cy3-conjugated donkey anti-mouse antibody (1:1,000; #715-165-150; Jackson ImmunoResearch), an Alexa488-conjugated donkey anti-mouse antibody (1:1,000; #715-545-150; Jackson ImmunoResearch), or a Cy3-conjugated donkey anti-rabbit antibody (1:1,000; #711-165-152; Jackson ImmunoResearch) at room temperature for 1 hour. The cells were mounted with a Vectashield fluorescent mounting medium containing DAPI (#H-1200; Vector Laboratories). The expression of heterologous odorant receptors was analyzed with a confocal laser scanning microscope LSM700 and ZEN software (Zeiss).
(§4) The Dual-Glo luciferase assay system (#E2940; Promega) was used for odorant receptor ligand screening. More specifically, Hana3A cells were streaked and spread on a white polystyrene 96-well plate (#353296; BD Biosciences) one day before transfection. pCRELuc (1 μg; #219076; Agilent Technologies), pRL-SV40 (1 μg; #E2231; Promega), RTP1S (1 μg), and OR (6 μg; or Mock) vectors were transfected for 24 hours in each plate. Each plate was analyzed using Lipofectamine 2000 (#11668-019; Thermo Fisher Scientific) according to the manufacturer's protocol. Transfected cells were stimulated in CD293 medium (#11913-019; Thermo Fisher Scientific) at 37° C. for 4 hours using diluted odorants at various concentrations. The activity of luciferase was normalized by the activity of Renilla luciferase. The amount of light emitted was measured using a SpectraMax L microplate reader (Molecular Devices).

Olfr110 [4] = molecular target: T1, Olfr110 (Mus musculus, UniProt A2RT31); experiment: Luciferase assay in Hana3A cells, Olfr110; type: cell-based
T1 construct: Full-length odorant receptor genes from mouse and human genomic DNA were amplified using appropriate primers; Lucy (N); Flag (N); Rho (N); expressed in transfected cells; host or cells: Hana3A cells, co-transfected with RTP1S, pCRELuc and pRL-SV40
T1 sequence (A2RT31 1-317): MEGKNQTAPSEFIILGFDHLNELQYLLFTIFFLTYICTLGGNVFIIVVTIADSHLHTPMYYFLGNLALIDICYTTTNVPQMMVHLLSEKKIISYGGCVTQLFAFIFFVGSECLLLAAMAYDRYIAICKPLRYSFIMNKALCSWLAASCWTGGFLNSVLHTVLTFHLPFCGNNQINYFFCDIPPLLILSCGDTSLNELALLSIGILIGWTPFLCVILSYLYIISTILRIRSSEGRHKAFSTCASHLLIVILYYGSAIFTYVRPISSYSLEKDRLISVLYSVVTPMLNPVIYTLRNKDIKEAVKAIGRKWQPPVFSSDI
Experimental: as §3, §4

cerebral cortex = experiment: Cytokine mRNA in cerebral cortex after IP injection (qRT-PCR); type: in vivo, mouse; settings: vs control
Excerpt: as §1

## CCCCCc1ccco1 [2-PF, 2-pentylfuran]
Primary microglia
  phagocytosis of microglia: significantly increased in a concentration-dependent manner
microglia
  GFP intensity of microglia (morphological change, activation): highly increased
Olfr110 [1]
  Olfr110 protein level (immunostaining): significantly increases
[2]
  mobility (chemotaxis) of Olfr110-expressing Hana3A cells: increased in mobility in a concentration-dependent manner
[3]
  mobility (chemotaxis) of Olfr111-expressing Hana3A cells: increased in mobility in a concentration-dependent manner
Olfr111
  reactivity of Olfr111 (relative luciferase activity): particularly strong reactivity; also recorded: highest reactivity
Olfr110 [4]
  mode of action at Olfr110: agonist
Olfr110 [4]; Hana3A cells
  reactivity of Olfr110 (relative luciferase activity): particularly strong reactivity; also recorded: strongest reactivity
Cerebral cortex
  mRNA expression level of inflammatory cytokines in the cerebral cortex: significantly increased
